According to the NIST ThermoML archive (doi:10.1016/j.jct.2006.08.009):

Experiment: mn = molality of the nth substance listed, in mol/kg
Conditions: 350 kPa, Liquid; for apparent molar heat capacity: Extra sensitive DSC

OC[C@@H](O)[C@@H](O)[C@H](O)[C@@H](O)CO [D-sorbitol] + O
Conditions | apparent molar heat capacity [J/K/mol] | mass density [kg/m3]
278.15 K, m1 = 0.02 | 373 | 1001.46
278.15 K, m1 = 0.04 | 346.7 | 1002.79
278.15 K, m1 = 0.069 | 355.4 | 1005.09
278.15 K, m1 = 0.1997 | 360.1 | 1013.23
278.15 K, m1 = 0.4003 | 363.3 | 1025.52
278.15 K, m1 = 0.6991 | 367.7 | 1042.94
278.15 K, m1 = 0.9784 | 372.3 | 1057.65
278.15 K, m1 = 1.501 | 372.1 | 1082.71
278.15 K, m1 = 2.004 | 383.7 | 1104.6
283.15 K, m1 = 0.02 | 391 | 1001.14
283.15 K, m1 = 0.04 | 366.7 | 1002.47
283.15 K, m1 = 0.069 | 374.6 | 1004.71
283.15 K, m1 = 0.1997 | 378.8 | 1012.74
283.15 K, m1 = 0.4003 | 381.8 | 1024.88
283.15 K, m1 = 0.6991 | 385.6 | 1042.11
283.15 K, m1 = 0.9784 | 389.4 | 1056.73
283.15 K, m1 = 1.501 | 389.4 | 1081.57
283.15 K, m1 = 2.004 | 399.4 | 1103.19
288.15 K, m1 = 0.02 | 406 | 1000.48
288.15 K, m1 = 0.04 | 382.5 | 1001.81
288.15 K, m1 = 0.069 | 389.8 | 1003.99
288.15 K, m1 = 0.1997 | 393.7 | 1011.95
288.15 K, m1 = 0.4003 | 396.3 | 1023.96
288.15 K, m1 = 0.6991 | 399.5 | 1041
288.15 K, m1 = 0.9784 | 402.8 | 1055.55
288.15 K, m1 = 1.501 | 402 | 1080.23
288.15 K, m1 = 2.004 | 411.5 | 1101.6
293.15 K, m1 = 0.02 | 418 | –
293.15 K, m1 = 0.04 | 395.4 | –
293.15 K, m1 = 0.069 | 402.5 | –
293.15 K, m1 = 0.1997 | 406.4 | –
293.15 K, m1 = 0.4003 | 408.9 | –
293.15 K, m1 = 0.6991 | 411.6 | –
293.15 K, m1 = 0.9784 | 414.4 | –
293.15 K, m1 = 1.501 | 413.2 | –
293.15 K, m1 = 2.004 | 422 | –
298.15 K, m1 = 0.02 | 429 | 998.4
298.15 K, m1 = 0.04 | 406.9 | 999.67
298.15 K, m1 = 0.069 | 413.8 | 1001.72
298.15 K, m1 = 0.1997 | 417.4 | 1009.58
298.15 K, m1 = 0.4003 | 419.5 | 1021.39
298.15 K, m1 = 0.6991 | 421.9 | 1038.13
298.15 K, m1 = 0.9784 | 424.4 | 1052.5
298.15 K, m1 = 1.501 | 422.7 | 1076.86
298.15 K, m1 = 2.004 | 430.9 | 1097.81
303.15 K, m1 = 0.02 | 439 | –
303.15 K, m1 = 0.04 | 417.1 | –
303.15 K, m1 = 0.069 | 423.6 | –
303.15 K, m1 = 0.1997 | 426.9 | –
303.15 K, m1 = 0.4003 | 428.9 | –
303.15 K, m1 = 0.6991 | 430.9 | –
303.15 K, m1 = 0.9784 | 433.1 | –
303.15 K, m1 = 1.501 | 431.1 | –
303.15 K, m1 = 2.004 | 438.8 | –
308.15 K, m1 = 0.02 | 447 | 995.35
308.15 K, m1 = 0.04 | 425.7 | 996.6
308.15 K, m1 = 0.069 | 432 | 998.45
308.15 K, m1 = 0.1997 | 435.3 | 1006.4
308.15 K, m1 = 0.4003 | 437 | 1018.06
308.15 K, m1 = 0.6991 | 438.8 | 1034.6
308.15 K, m1 = 0.9784 | 440.7 | 1048.63
308.15 K, m1 = 1.501 | 438.4 | 1072.81
308.15 K, m1 = 2.004 | 445.8 | 1093.63
313.15 K, m1 = 0.02 | 455 | –
313.15 K, m1 = 0.04 | 432.5 | –
313.15 K, m1 = 0.069 | 439.5 | –
313.15 K, m1 = 0.1997 | 442.6 | –
313.15 K, m1 = 0.4003 | 444.2 | –
313.15 K, m1 = 0.6991 | 445.8 | –
313.15 K, m1 = 0.9784 | 447.5 | –
313.15 K, m1 = 1.501 | 445.1 | –
313.15 K, m1 = 2.004 | 452.2 | –
318.15 K, m1 = 0.02 | 462 | 991.53
318.15 K, m1 = 0.04 | 439.7 | 992.78
318.15 K, m1 = 0.069 | 446.1 | 994.56
318.15 K, m1 = 0.1997 | 449.1 | 1002.41
318.15 K, m1 = 0.4003 | 450.6 | 1013.97
318.15 K, m1 = 0.6991 | 452 | 1030.3
318.15 K, m1 = 0.9784 | 453.6 | 1044.19
318.15 K, m1 = 1.501 | 451 | 1068.13
318.15 K, m1 = 2.004 | 457.8 | 1088.73
323.15 K, m1 = 0.02 | 468 | –
323.15 K, m1 = 0.04 | 446 | –
323.15 K, m1 = 0.069 | 451.9 | –
323.15 K, m1 = 0.1997 | 455 | –
323.15 K, m1 = 0.4003 | 456.3 | –
323.15 K, m1 = 0.6991 | 457.6 | –
323.15 K, m1 = 0.9784 | 459 | –
323.15 K, m1 = 1.501 | 456.5 | –
323.15 K, m1 = 2.004 | 463 | –
328.15 K, m1 = 0.02 | 473 | 987.02
328.15 K, m1 = 0.04 | 450.8 | 988.24
328.15 K, m1 = 0.069 | 457.2 | 989.98
328.15 K, m1 = 0.1997 | 460.2 | 997.75
328.15 K, m1 = 0.4003 | 461.5 | 1009.18
328.15 K, m1 = 0.6991 | 462.7 | 1025.35
328.15 K, m1 = 0.9784 | 464 | 1039.16
328.15 K, m1 = 1.501 | 461.4 | 1062.99
328.15 K, m1 = 2.004 | 467.6 | 1083.37
333.15 K, m1 = 0.02 | 478 | –
333.15 K, m1 = 0.04 | 456.4 | –
333.15 K, m1 = 0.069 | 462 | –
333.15 K, m1 = 0.1997 | 464.9 | –
333.15 K, m1 = 0.4003 | 466.2 | –
333.15 K, m1 = 0.6991 | 467.3 | –
333.15 K, m1 = 0.9784 | 468.5 | –
333.15 K, m1 = 1.501 | 465.9 | –
333.15 K, m1 = 2.004 | 471.9 | –
338.15 K, m1 = 0.02 | 482 | 981.86
338.15 K, m1 = 0.04 | 460.5 | 983.14
338.15 K, m1 = 0.069 | 466.2 | 984.86
338.15 K, m1 = 0.1997 | 469.2 | 992.6
338.15 K, m1 = 0.4003 | 470.5 | 1003.94
338.15 K, m1 = 0.6991 | 471.5 | 1020.02
338.15 K, m1 = 0.9784 | 472.6 | 1033.71
338.15 K, m1 = 1.501 | 470.1 | 1057.29
338.15 K, m1 = 2.004 | 475.8 | 1077.49
343.15 K, m1 = 0.02 | 486 | –
343.15 K, m1 = 0.04 | 464 | –
343.15 K, m1 = 0.069 | 470 | –
343.15 K, m1 = 0.1997 | 473 | –
343.15 K, m1 = 0.4003 | 474.3 | –
343.15 K, m1 = 0.6991 | 475.3 | –
343.15 K, m1 = 0.9784 | 476.3 | –
343.15 K, m1 = 1.501 | 473.9 | –
343.15 K, m1 = 2.004 | 479.3 | –
348.15 K, m1 = 0.02 | 489 | 976.44
348.15 K, m1 = 0.04 | 467.7 | 977.62
348.15 K, m1 = 0.069 | 473.3 | 979.35
348.15 K, m1 = 0.1997 | 476.4 | 987.03
348.15 K, m1 = 0.4003 | 477.7 | 998.25
348.15 K, m1 = 0.6991 | 478.6 | 1014.26
348.15 K, m1 = 0.9784 | 479.7 | 1027.75
348.15 K, m1 = 1.501 | 477.3 | 1051.07
348.15 K, m1 = 2.004 | 482.4 | 1071.23
353.15 K, m1 = 0.02 | 492 | –
353.15 K, m1 = 0.04 | 472.1 | –
353.15 K, m1 = 0.069 | 476.2 | –
353.15 K, m1 = 0.1997 | 479.4 | –
353.15 K, m1 = 0.4003 | 480.6 | –
353.15 K, m1 = 0.6991 | 481.6 | –
353.15 K, m1 = 0.9784 | 482.6 | –
353.15 K, m1 = 1.501 | 480.4 | –
353.15 K, m1 = 2.004 | 485.2 | –
358.15 K, m1 = 0.02 | 494 | 969.9
358.15 K, m1 = 0.04 | 480.2 | 971.49
358.15 K, m1 = 0.069 | 478.7 | 972.88
358.15 K, m1 = 0.1997 | 481.7 | 980.97
358.15 K, m1 = 0.4003 | 483 | 991.75
358.15 K, m1 = 0.6991 | 483.9 | 1007.73
358.15 K, m1 = 0.9784 | 484.8 | 1021.37
358.15 K, m1 = 1.501 | 483.2 | 1044.38
358.15 K, m1 = 2.004 | 487.4 | 1064.53
363.15 K, m1 = 0.02 | 495 | –
363.15 K, m1 = 0.04 | 508 | –
363.15 K, m1 = 0.069 | 479.6 | –
363.15 K, m1 = 0.1997 | 482.5 | –
363.15 K, m1 = 0.4003 | 483.7 | –
363.15 K, m1 = 0.6991 | 484.6 | –
363.15 K, m1 = 0.9784 | 485.5 | –
363.15 K, m1 = 1.501 | 485.7 | –
363.15 K, m1 = 2.004 | 487.9 | –
368.15 K, m1 = 0.02 | – | 963.45
368.15 K, m1 = 0.04 | – | 964.68
368.15 K, m1 = 0.069 | – | 966.4
368.15 K, m1 = 0.1997 | – | 974.03
368.15 K, m1 = 0.4003 | – | 985.25
368.15 K, m1 = 0.6991 | – | 1001.2
368.15 K, m1 = 0.9784 | – | 1014.47
368.15 K, m1 = 1.501 | – | 1037.56
368.15 K, m1 = 2.004 | – | 1057.91
